One series concerns Mtb H37Ra^lux. As to the kind of experiment: microbe, parasite or virus in culture. In kind it is cell-based, Mycobacterium tuberculosis. Conditions: for IC50: read-out: Mtb H37Ra^lux IC50; for MIC: read-out: Mtb H37Ra^lux IC90 (MIC).
A further series is described as follows: in vitro. Conditions: human.
Setting [1] is: Mycobacterium tuberculosis, H37RA, 168 h.

The values below come from article PMC9364363 (RSC Advances, 2022).

Converted amounts (≈) assume the structure as drawn. Read-outs that look alike come from different tables or passages of the source. A value given as a limit tells only on which side of the number the result lay.

With `NNC(=O)c1ccncc1` [INH, isoniazid, reference compound], in the series with Mtb H37Ra^lux (setting [1]), the IC50 was determined as 0.04 µM and the MIC worked out at 0.09 µM (≈ 0.0123 µg/mL).
For `CCCCc1cn(CCN2CCN(C(=O)c3c(C)nc4sccn34)CC2)nn1` [IT01, (4-(2-(4-Butyl-1H-1,2,3-triazol-1-yl)-ethyl)-piperazin-1-yl)(6-methylimidazo-[2,1-b]-thiazol-5-yl)-methanone], in that order: 6.12 µM and 52 µM (≈ 20.9 µg/mL).
For `Cc1nc2sccn2c1C(=O)N1CCN(CCn2cc(COc3ccc(Cl)cn3)nn2)CC1` [IT05, (4-(2-(4-(((5-Chloropyridin-2-yl)-oxy)-methyl)-1H-1,2,3-triazol-1-yl)ethyl)-piperazin-1-yl)(6-methylimidazo-[2,1-b]-thiazol-5-yl)-methanone], in that order: 49.6 µM and greater than 128 µM.
For `Cc1nc2sc3ccccc3n2c1C(=O)N1CCN(Cc2cn(-c3ccc(Cl)cc3Cl)nn2)CC1` [IT06, (4-((1-(2,4-Dichlorophenyl)-1H-1,2,3-triazol-4-yl)-methyl)-piperazin-1-yl)(2-methylbenzo-[d]-imidazo-[2,1-b]-thiazol-3-yl)-methanone], in that order: 2.03 µM and 15.2 µM (≈ 8.01 µg/mL).
Take `COc1cccc(-n2cc(CN3CCN(C(=O)c4c(C)nc5sc6ccccc6n45)CC3)nn2)c1` [IT07, (4-((1-(3-Methoxyphenyl)-1H-1,2,3-triazol-4-yl)-methyl)-piperazin-1-yl)(2-methylbenzo-[d]-imidazo-[2,1-b]-thiazol-3-yl)-methanone]: in the series with Mtb H37Ra^lux (setting [1]), the IC50 came out at 7.27 µM and the MIC stood at 15.4 µM (≈ 7.49 µg/mL).
`CCCCc1cn(CCN2CCN(C(=O)c3c(C)nc4sc5ccccc5n34)CC2)nn1` [IT12, (4-(2-(4-Butyl-1H-1,2,3-triazol-1-yl)-ethyl)-piperazin-1-yl)(2-methylbenzo-[d]-imidazo-[2,1-b]-thiazol-3-yl)-methanone]: in the series with Mtb H37Ra^lux (setting [1]), the IC50 was found to be 43.7 µM and the MIC stood at 62.8 µM (≈ 28.3 µg/mL).
For `CCCCCCCCCc1cn(CCN2CCN(C(=O)c3c(C)nc4sc5ccccc5n34)CC2)nn1` [IT14, (2-methylbenzo-[d]-imidazo-[2,1-b]-thiazol-3-yl)(4-(2-(4-nonyl-1H-1,2,3-triazol-1-yl)-ethyl)-piperazin-1-yl)-methanone], in that order: 13.1 µM and 28 µM (≈ 14.6 µg/mL).
For `Cc1nc2sc3ccccc3n2c1C(=O)N1CCN(CCn2cc(-c3ccccc3)nn2)CC1` [IT15, (2-Methylbenzo-[d]-imidazo-[2,1-b]-thiazol-3-yl)(4-(2-(4-phenyl-1H-1,2,3-triazol-1-yl)-ethyl)-piperazin-1-yl)-methanone], in that order: 12.2 µM and 27.2 µM (≈ 12.8 µg/mL).
For `Cc1nc2sc3ccccc3n2c1C(=O)N1CCN(CCn2cc(C3CC3)nn2)CC1` [IT18, (4-(2-(4-Cyclopropyl-1H-1,2,3-triazol-1-yl)-ethyl)-piperazin-1-yl)(2-methylbenzo-[d]-imidazo-[2,1-b]-thiazol-3-yl)-methanone], in that order: 29.1 µM and 63.8 µM (≈ 27.8 µg/mL).
For `Cc1nc2sccn2c1C(=O)N1CCN(CCn2cc(C3CC3)nn2)CC1` [IT19, (4-(2-(4-Cyclopropyl-1H-1,2,3-triazol-1-yl)-ethyl)-piperazin-1-yl)(6-methylimidazo-[2,1-b]-thiazol-5-yl)-methanone], in the series on Mtb H37Ra^lux (setting [1]), the IC50 was greater than 128 µM and the MIC is greater than 128 µM.
With `Cc1nc2sccn2c1C(=O)N1CCN(CCn2cc(-c3ccccc3)nn2)CC1` [IT20, (6-Methylimidazo-[2,1-b]-thiazol-5-yl)(4-(2-(4-phenyl-1H-1,2,3-triazol-1-yl)-ethyl)-piperazin-1-yl)-methanone], in the series on Mtb H37Ra^lux (setting [1]), the IC50 was found to be 20.6 µM and the MIC turned out to be 54.9 µM (≈ 23.2 µg/mL).
For `Cc1nc2sccn2c1C(=O)N1CCN(Cc2cn(-c3ccc(Br)cc3)nn2)CC1` [IT21, (4-((1-(4-Bromophenyl)-1H-1,2,3-triazol-4-yl)-methyl)-piperazin-1-yl)(6-methylimidazo-[2,1-b]-thiazol-5-yl)-methanone], in that order: 20.7 µM and 53 µM (≈ 25.8 µg/mL).
For `Cc1nc2sccn2c1C(=O)N1CCN(Cc2cn(-c3ccc(F)c(Cl)c3)nn2)CC1` [IT22, (4-((1-(3-Chloro-4-fluorophenyl)-1H-1,2,3-triazol-4-yl)-methyl)-piperazin-1-yl)(6-methylimidazo-[2,1-b]-thiazol-5-yl)-methanone], in that order: 5.28 µM and 57.8 µM (≈ 26.6 µg/mL).
With `Cc1nc2sccn2c1C(=O)N1CCN(Cc2cn(-c3cccc([N+](=O)[O-])c3)nn2)CC1` [IT23, (6-Methylimidazo-[2,1-b]-thiazol-5-yl)(4-((1-(3-nitrophenyl)-1H-1,2,3-triazol-4-yl)-methyl)-piperazin-1-yl)-methanone], in the series with Mtb H37Ra^lux (setting [1]), the IC50 came to 43.8 µM and the MIC amounted to 84.8 µM (≈ 38.4 µg/mL).
For `Cc1ccc(-n2cc(CN3CCN(C(=O)c4c(C)nc5sccn45)CC3)nn2)cc1C` [IT24, (4-((1-(3,4-Dimethylphenyl)-1H-1,2,3-triazol-4-yl)-methyl)-piperazin-1-yl)(6-methylimidazo-[2,1-b]-thiazol-5-yl)-methanone], in that order: 19.8 µM and 48.8 µM (≈ 21.2 µg/mL).
For `Cc1nc2sccn2c1C(=O)N1CCN(Cc2cn(-c3ccc([N+](=O)[O-])cc3)nn2)CC1` [IT25, (6-Methylimidazo-[2,1-b]-thiazol-5-yl)(4-((1-(4-nitrophenyl)-1H-1,2,3-triazol-4-yl)-methyl)-piperazin-1-yl)-methanone], in that order: 23.1 µM and 51.4 µM (≈ 23.2 µg/mL).
For `Cc1nc2sccn2c1C(=O)N1CCN(Cc2cn(-c3ccccc3Cl)nn2)CC1` [IT26, (4-((1-(2-Chlorophenyl)-1H-1,2,3-triazol-4-yl)-methyl)-piperazin-1-yl)(6-methylimidazo-[2,1-b]-thiazol-5-yl)-methanone], in that order: 30.2 µM and 62.1 µM (≈ 27.5 µg/mL).
Take `COc1cccc(-n2cc(CN3CCN(C(=O)c4c(C)nc5sccn45)CC3)nn2)c1` [IT27, (4-((1-(3-Methoxyphenyl)-1H-1,2,3-triazol-4-yl)-methyl)-piperazin-1-yl)(6-methylimidazo-[2,1-b]-thiazol-5-yl)-methanone]: in the series on Mtb H37Ra^lux (setting [1]), the IC50 was 46 µM and the MIC was 98.1 µM (≈ 42.9 µg/mL).
For `CC/C(=C(\c1ccccc1)c1ccc(OCCN(C)C)cc1)c1ccccc1` [Tamoxifen, reference compound], in the series “in vitro”, the CC50 was 12.4 µM.
In the case of “(4-(2-(4-((5-Chloropyridin-2-yl)oxy)-1H-1,2,3-triazol-1-yl)-ethyl)-piperazin-1-yl)(2-methylbenzo-[d]-imidazo-[2,1-b]-thiazol-3-yl)-methanone [IT17]”, in the series on Mtb H37Ra^lux, the “Mtb H37Ra^lux IC90 (MIC)” value is 115.57 µM and the IC50 was found to be 19.7 µM.

One may read the IC50 as the concentration needed to halve the response being measured.
